The record followed here is patent US8609725B2, “Method of using beta-hydroxy-beta-methylbutyrate for reducing tumor growth rate” (Abbott Laboratories, priority 2004, dated 2013).

The test system of assay [1] is p42, ATPase subunit of the 19S regulator. Nature of the assay: Western blotting of p42 in gastrocnemius muscle of MAC16 mice. It is filed as in vivo, NMRI mice.
The test system of the next assay is NF-κB. Nature of the assay: NF-κB nuclear accumulation / binding to DNA (EMSA) in murine myotubes. Format: cell-based. Here is the method: DNA binding proteins were extracted from myotubes by the method of Andrews, N. C. et al. A rapid micropreparation technique for extraction of DNA-binding proteins from limiting numbers of mammalian cells. Nucleic Acids Res., 19: 2499, 1991, which utilizes hypotonic lysis followed by high salt extraction of nuclei. The EMSA (electrophoretic mobility shift assay) binding assay was carried out according to the manufacturer's instructions. The in vitro study described in Example III above also evaluated the effect of HMB on molecules that are key mediators in the pathway of inflammation. This experiment was conducted as described in Example III.
(Mobility shift assays separate free from complexed probe on a gel.)

In assay [2] the test system is MSS1, an ATPase subunit of the 19S proteasome regulatory complex. Nature of the assay: Western blotting of MSS1 in gastrocnemius muscle of MAC16 mice. Format: in vivo, NMRI mice. (In western blotting, separated proteins are transferred to a membrane and probed.)
Assay [3] relates to β subunits of the proteasome. Nature of the assay: 'Chymotrypsin-like' enzyme activity in PIF-treated murine myotubes. Format: cell-based. Here is the method:
The functional activity of the β subunits of the proteasome was determined as the ‘chymotrypsin-like’ enzyme activity obtained fluorimetrically according to the method of Orino, E. et al. ATP-dependent reversible association of proteasomes with multiple protein components to form 26S complexes that degrade ubiquitinated proteins in human HL-60 cells. FEBS Lett., 284: 206-210, 1991. Myotubes were exposed to PIF for 24 h with or without EPA or HMB added 2 h prior to PIF and enzyme activity was determined in a supernatant fraction (Whitehouse, A. S. et al. Increased expression of the ubiquitin-proteasome pathway in murine myotubes by proteolysis-inducing factor (PIF) is associated with activation of the transcription factor NF-κB. Br. J. Cancer, 89: 1116-1122, 2003) by the release of aminomethyl coumarin (AMC) from succinyl-LLVY-AMC (0.1 mM) in the presence or absence of the specific proteasome inhibitor lactacystin (10 μM) (Fenteany, G. et al. Lactacystin, proteasome function and cell fate. J. Biol. Chem., 273: 8545-8548, 1998). Only lactacystin suppressible activity was considered to be proteasome specific. Activity was adjusted for the protein concentration of the sample, determined using the Bradford assay (Sigma Chemical Co., Dorset, United Kingdom) using bovine serum albumin as standard.

Assay [4] relates to mice bearing the MAC16 tumor. Nature of the assay: Body composition analysis of mice bearing the MAC16 tumor. It is filed as in vivo. An excerpt: Materials and animals were obtained as per Example 1.
For a further assay, the system named is phospholipase A (PLA). Nature of the assay: Arachidonic acid release / PLA activation. It is filed as cell-based, murine. Particulars: mechanism statement. Here is the method:
For measurement of arachidonic acid release, myotubes in six-well multi dishes containing 2 ml DMEM with 2% HS were labeled for 24 h with 10 μM arachidonic acid (containing 1 μCi of [^3H] arachidonate/ml) (Smith, H. et al. Effect of a cancer cachectic factor on protein synthesis/degradation in murine C2C12 myoblasts: Modulation by eicosapentaenoic acid. Cancer Res., 59: 5507-5513, 1999). Cells were then washed extensively with PBS to remove traces of unincorporated [^3H] arachidonate and either EPA or HMB was added 2 h prior to PIF. After a further 24 h 1 ml of medium was removed to determine the radioactivity released.

[5] abbreviates: HMB 0.25 g/kg, EPA 0.6 g/kg or combination, 3 days.

In the case of `CC(C)(O)CC(=O)O` [HMB, beta-hydroxy-beta-methylbutyric acid], in assay [1] (setting [5]), the “expression of p42” value is on record as “equally effective”. Further, the “reduction of protein expression of p42” value in assay [1] (summary of Examples I-IV) is listed as “at least 50%”. Also, the “inhibition of binding of NF-κB to DNA” value in the assay on NF-κB (25 μM HMB) is on record as “Only partial inhibition”. Moreover, the “nuclear accumulation of NF-κB” value in the assay on NF-κB (50 μM HMB) is given as “prevent nuclear accumulation of NF-κB”. Also, in assay [2] (setting [5]), the “expression of MSS1” value is on record as “attenuated”. In assay [2] (summary of Examples I-IV), the “reduction of protein expression of MSS1” value is “at least 50%”. Besides, in assay [3] (25 μM HMB), the “attenuation of PIF-induced increase in 'chymotrypsin-like' enzyme activity” value is on record as “completely attenuated”. Further, in assay [3] (50 μM), the “attenuation of PIF-induced increase in 'chymotrypsin-like' enzyme activity” value was “completely attenuated”. Also, in assay [4] (HMB 0.125 g/kg for 5 days), the “Fat (%)” value worked out at 3.3 ± 1.6%, the “Nonfat (%)” value turned out to be 31.2 ± 1.5 % and the “Water (%)” value was 65.5 ± 0.9%. Besides, in assay [4] (HMB 0.25 g/kg for 5 days), the “Fat (%)” value is listed as 4.4 ± 1.3%, the “Nonfat (%)” value was found to be 29.2 ± 1.9 % and the “Water (%)” value turned out to be 66.5 ± 2.2%. Besides, in assay [4] (HMB 0.5 g/kg for 5 days), the “Fat (%)” value worked out at 3.8 ± 1.2%, the “Nonfat (%)” value is 29.0 ± 1.4 % and the “Water (%)” value was 67.2 ± 2.3%. In assay [4] (HMB for 5 days, in words), the adipose tissue entry is listed as “without an effect” and the nonfat carcass mass entry is listed as “significant increase”. Further, in the assay on phospholipase A (PLA), the “activation of PLA or release of AA” value is reported as “not preventing”.
